# Results taken from paper PMC10300102, “In vivo inhibition of nuclear ACE2 translocation protects against SARS-CoV-2 replication and lung damage through epigenetic imprinting” (Nature Communications, 2023).
# Where a SMILES comes first, the peptide text is derived from it. The star is where a group is joined. Myristoyl = CCCCCCCCCCCCCC(=O)*
# What was measured:
# Design in all cases: species or system golden Syrian hamsters
# Conditions in all cases: hamster, in vivo
# [1] = test system: ACE2, ACE2me, SARS-CoV-2 spike protein
# [2] = test system: H3K27ac
# [3] = test system: SARS-CoV-2
smiles,measurement,setting,value
CCCCCCCCCCCCCC(=O)N[C@H](C(=O)NCC(=O)N[C@H](C(=O)N[C@@H](CCCNC(=N)N)C(=O)N[C@@H](CC(=O)O)C(=O)N[C@@H](CCCNC(=N)N)C(=O)N[C@@H](CCCCN)C(=O)N[C@@H](CCCCN)C(=O)N[C@@H](CCCCN)C(=O)N[C@@H](CC(N)=O)C(=O)N[C@@H](CCCCN)C(=O)N[C@@H](C)C(=O)N[C@@H](CCCNC(=N)N)C(=O)N[C@@H](CO)C(=O)O)[C@@H](C)CC)[C@@H](C)O [NACE2i] (Myristoyl-TGIRDRKKKNKARS-OH),ACE2me in the bronchioles,[1],significantly upregulated
same,Fn/c of ACE2,[1],significantly reduced
same,SARS-CoV-2 spike protein expression in bronchioles,[1],significantly reduced or eliminated
same,global ACE2 and proportion of ACE2+ cells,[1],no significant change
same,nuclear ACE2 expression in bronchiolar epithelial cells,[1],significantly reduced
same,proportion of cells co-expressing ACE2 and ACE2me,[1],increased
same,H3K27ac along with ACE2me in lung tissues,[2],significant H3K27ac induction
same,lung infectious titers (TCID50),[3],significantly reduced
